Assay results reported in US20260007716A1, “DESLORELIN FOR ATTENUATION OF ANIMAL URINE ODOR” (priority 2022, published 2026).

How the values were obtained:
dogs = conditions: cited from earlier work
cat = assay: Safety study in cat and tolerance studies in male and female species; assay type: in vivo; conditions: safety study in cat, high dose
male cats [1] = assay: Cat field studies 1 and 2: suppression of fertility, re-implantation and reversibility (Example 4); assay type: in vivo
Method: This example provides the data collected from 2 combined studies (Double-masked Placebo-Controlled randomized) that have been conducted sequentially according to the following schedule: • Study 1: The study 1 has been conducted on a group of 205 male cats divided into two groups, one Control Group that received 1 mL of saline solution (n=51-subcutaneous administration) and one Treated Group (n=154) that received an implant of Suprelorin® 4.7 mg (subcutaneous implant-deslorelin acetate). • Study 2: At the end of a first period of 12 months, the Suprelorin® implant was removed in all the male cats belonging to the Treated Group. 12 male cats of the Treated Group issued from study 1 were then administered saline solution (1 mL subcutaneously) (Saline Group) and 22 cats of the Treated Group issued from Study 1 were re-implanted with a new Suprelorin® 4.7 mg implant for a second period of time of 12 months (Treated twice Group). The efficacy and safety of the re-implantation was followed-up for these supplementary 12 months, i.e. for a total of 24 months.
The observation schedule was as follows: • Study 1: V1: Day −14 to −7; V2: Day 0; V3: 1.5 months±3 days; V4: 3 months±5 days, V5: 6 months±5 days, V6: 9 months±5 days; V7: 12 months±5 days; • Study 2: V8: 12 months±3 days; V9: 13.5 months±3 days; V10: 15 months±5 days; V11: 18 months±5 days; V12: 21 months±5 days; V13: 24 months±5 days.
Regarding the enrolment criteria, in both studies the criteria were as the following: • Domestic Cats • Age >3 MONTHS old or >15 MONTHS in Study 2 • Intact Indoor males • Client-owned (including shelter cats/rehomed by foster families)
With the additional criteria for study 2 of being a success in study 1.
In these studies the following primary endpoints were measured: • For Study 1: the suppression of fertility (Testosterone≤0.10 ng/ml*from V4 until V7*-3 to 12 months) • Study 2: the suppression of fertility (Testosterone≤0.10 ng/ml*from V8 until V13 (12 to 24 months) and the time to reversion effect.
In addition to the safety parameters (Haematology and blood biochemistry, Urinalysis, Local reactions at the implantation site, Change in Body weight, Appetite, Abnormal testicular evaluation, Adverse events), the following secondary endpoints have been reported as well: • Sexual behaviour sum score • Aggression • Vocalization • Urine marking • Urine Smell/odour • Penile Spines • Testicular volume

[2] = system: molecules responsible of urine odor; assay: LC-MS/MS metabolomic analysis of urine of male cats after deslorelin implant (Examples 2 and 3); assay type: in vivo, cat
Method: A first study A was performed in 2 groups of a total number of 7 male healthy cats old from 12 to 13 months and weighting between 4 and 6 kg in: Control group: n=3, intact males, administered sodium chloride (saline) on day 0 (D0), Chemically treated group: n=4 one implant of Suprelorin® 4.7 mg on day 0 (D0). The study A was conducted for a period of 63 days after the implantation of Suprelorin® 4.7 mg. From […]-7, a clinical examination of the cats was performed (body weight, temperature) and samples of urine and feces were collected. At D0, the cats of the treated group were implanted subcutaneously with Suprelorin® 4.7 mg (Virbac, France). From D7 to […], a weekly clinical examination of the cats was performed (body weight, temperature) and samples urine and feces were collected. […] Thanks to this unusual technic, the metabolomics present in samples have been assessed. […] The workflow template was untargeted metabolomics with statistics to detect unknowns with ID using online Databases and mzLogic.ons obtained from positive and negative ionization mode using MZmine (Version 2.39) were also analyzed. […] Chromatograms were detected using the ADAP chromatogram builder (MS level: 1, Minimum group size in number of scans: 5, Group intensity threshold: 5×10^2, minimum highest intensity: 10^5, m/z tolerance: 10 ppm). […]

male cats [3] = assay: Multi-site field, double-masked, placebo-controlled study of a single 4.7 mg deslorelin implant in male cats (Example 1); assay type: in vivo
Method: The aim of this multi-site field, double-masked, placebo-controlled, randomized study was to confirm that deslorelin implants can be used as a neutering option for male cats and can also reduce their associated tomcat sexual behaviours.
Privately owned indoor male cats [3 months-11 years of age] were allocated to two groups to be either implanted with one 4.7 mg deslorelin implant (Suprelorin® 4.7 mg, Virbac, France) or to receive sodium chloride. The implant and the saline solution were administered subcutaneously between the shoulder blades on day 0 (D0). Serum testosterone concentrations in ng/ml (T), sexual behaviors (presence of urine marking, frequency of vocalization, frequency of aggressiveness) and presence of intact male cat urine odour were assessed until month (M) 12 (D372). General safety assessments, bodyweight, appetite and adverse reactions were regularly followed.
The protocol received ethical approval. The Cochran-Mantel-Haenszel test stratified by center with the RIDIT transformation and the general association statistic were used for comparison between groups.
Among n=205 Male Cats, n=154 received Suprelorin® 4.7 mg (treated group) and n=51 received the saline solution as control group.

[4] = vs saline group, throughout the study

For CCNC(=O)[C@@H]1CCCN1C(=O)[C@H](CCCN=C(N)N)NC(=O)[C@H](CC(C)C)NC(=O)[C@@H](Cc1c[nH]c2ccccc12)NC(=O)[C@H](Cc1ccc(O)cc1)NC(=O)[C@H](CO)NC(=O)[C@H](Cc1c[nH]c2ccccc12)NC(=O)[C@H](Cc1cnc[nH]1)NC(=O)[C@@H]1CCC(=O)N1 [deslorelin], the presence of deslorelin (dogs; dog, in vivo) is given as 2.5 months, the “duration of observed effect” value (dogs; dogs) is given as “at least 6 months” and the adverse events (cat) is given as “neither serious adverse events nor live threatening events”. The “duration of effective chemical castration” value (male cats [1]) was “at least 12 months”, the “reversibility of effect at the end of the treatment” value (male cats [1]) was “reversible” and the sexual behaviors (male cats [1]) was “reduced”. The “onset of efficacy in behavioral reduction” value (male cats [1]; approx.) was 7 to 31 days, the safety concerns (male cats [1]; single or repeated administration, up to 24 months) was “no safety concern” and the “levels of cadaverine, indole, paracresol, isovalthine and isobuteine” value ([2]; individually or together at least by two, summary of Example 3 data) was “down regulate”. For the same compound, the “p-coumaroylputrescine concentration in urine” value ([2]; male cat urine, as a function of time, chemically treated group vs control group) was “decrease”, the “flare in sexual behavior” value (male cats [3]; one 4.7 mg implant) was “No flare in sexual behavior” and the safety concerns (male cats [3]; one 4.7 mg implant, up to M12) was “no safety concerns”. For the same compound, the Sexual behavior scores (male cats [3]; [4]) was “decreased significantly”, the testicular volumes (male cats [3]; [4]) was “decreased significantly” and the urine odour (male cats [3]; [4]) was “decreased significantly”. The “visibility of penile spines” value (male cats [3]; [4]) was “decreased significantly”.
